Results taken from patent US8859584B2, “TRPV1 antagonists” (AbbVie Inc., priority 2011, dated 2014).
pIC50: −log10 of the molar value.

Tests used:
human TRPV1 [1] = target: T1, human TRPV1 (Homo sapiens, UniProt Q8NER1); assay: Capsaicin Activation Assay (FLIPR intracellular Ca2+, recombinant HEK293 cells); format: cell-based; conditions: recombinant HEK293 cells expressing hTRPV1; 50 nM capsaicin; read-out: human TRPV1 capsaicin IC50
T1 construct: expressed in transfected cells

human TRPV1 [2] = target: T1, human TRPV1; assay: Acid Activation Assay (pH 5.0, FLIPR intracellular Ca2+, recombinant HEK293 cells); format: cell-based; conditions: percentage of maximal pH 5.0-induced response remaining; HEK293 hTRPV1; max concentration 37.5 μM
Summary of the method: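 HEK293 cells stably expressing recombinant hTRPV1 were loaded with calcium dye for 90-120 min at 25° C and pre-treated with compound for 3 min before a pH 5.0 (DPBS/MES) challenge. Peak FLIPR fluorescence over baseline is given as percentage of the maximal pH 5.0-induced response.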

T1 sequence (Q8NER1 whole entry): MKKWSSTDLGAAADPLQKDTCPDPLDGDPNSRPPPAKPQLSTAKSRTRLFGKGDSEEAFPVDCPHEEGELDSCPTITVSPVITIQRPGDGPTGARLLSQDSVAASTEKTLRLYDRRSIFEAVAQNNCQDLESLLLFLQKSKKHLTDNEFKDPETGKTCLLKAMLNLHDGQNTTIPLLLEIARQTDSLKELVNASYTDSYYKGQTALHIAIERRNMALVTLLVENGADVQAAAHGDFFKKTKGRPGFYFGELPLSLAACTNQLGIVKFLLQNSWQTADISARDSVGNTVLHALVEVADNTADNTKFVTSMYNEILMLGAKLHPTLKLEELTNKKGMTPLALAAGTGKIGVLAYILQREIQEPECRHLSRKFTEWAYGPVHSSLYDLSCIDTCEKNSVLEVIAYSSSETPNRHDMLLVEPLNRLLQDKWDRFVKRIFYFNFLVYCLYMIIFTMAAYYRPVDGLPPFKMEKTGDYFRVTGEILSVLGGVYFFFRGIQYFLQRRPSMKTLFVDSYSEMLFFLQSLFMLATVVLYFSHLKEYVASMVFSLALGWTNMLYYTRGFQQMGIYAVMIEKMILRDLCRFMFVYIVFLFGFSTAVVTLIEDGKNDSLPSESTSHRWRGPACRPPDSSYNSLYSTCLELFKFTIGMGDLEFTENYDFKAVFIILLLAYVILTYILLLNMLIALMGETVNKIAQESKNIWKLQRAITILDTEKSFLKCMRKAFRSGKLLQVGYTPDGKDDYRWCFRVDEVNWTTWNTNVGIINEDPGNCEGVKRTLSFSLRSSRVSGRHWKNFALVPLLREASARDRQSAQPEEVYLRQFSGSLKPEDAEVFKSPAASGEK

Row | Compound | pIC50 (human TRPV1 [1]) | human TRPV1 H+ (max % remain) (human TRPV1 [2])
1 | O=C(Nc1ccc(F)c2c1C[C@H](O)C2)N[C@@H]1CCOc2cc(OC(F)(F)F)ccc21 [Example 150, 1-[(2S)-7-fluoro-2-hydroxy-2,3-dihydro-1H-inden-4-yl]-3-[(4R)-7-(trifluoromethoxy)-3,4-dihydro-2H-chromen-4-yl]urea] | 5.80 | 3%
2 | O=C(Nc1ccc(F)c2c1C[C@@H](O)C2)N[C@@H]1CCOc2cc(OC(F)(F)F)ccc21 [Example 168, 1-[(2R)-7-fluoro-2-hydroxy-2,3-dihydro-1H-inden-4-yl]-3-[(4R)-7-(trifluoromethoxy)-3,4-dihydro-2H-chromen-4-yl]urea] | 6.07 | 70%
3 | CCCC1(CCC)C[C@@H](NC(=O)Nc2cccc3c2C[C@H](O)C3)c2cccc(F)c2O1 [Example 59, 1-[(4R)-8-fluoro-2,2-dipropyl-3,4-dihydro-2H-chromen-4-yl]-3-[(2R)-2-hydroxy-2,3-dihydro-1H-inden-4-yl]urea] | 7.64 | 99%
4 | CC1(C)C[C@@H](NC(=O)Nc2cccc3c2C[C@@H](O)C3)c2ccc(C(F)(F)F)cc2O1 [Example 77, 1-[(4R)-2,2-dimethyl-7-(trifluoromethyl)-3,4-dihydro-2H-chromen-4-yl]-3-[(2S)-2-hydroxy-2,3-dihydro-1H-inden-4-yl]urea] | 7.92 | 1%
5 | 1-[(4R)-7-fluoro-2,2-dimethyl-3,4-dihydro-2H-chromen-4-yl]-3-[(2R)-7-fluoro-2-hydroxy-2,3-dihydro-1H-inden-4-yl]urea [Example 158] | 6.22 | 48%
6 | O=C(Nc1cccc2c1C[C@H](O)C2)N[C@@H]1CC(CF)(CF)Oc2c(F)cccc21 [Example 70, 1-[(4R)-8-fluoro-2,2-bis(fluoromethyl)-3,4-dihydro-2H-chromen-4-yl]-3-[(2R)-2-hydroxy-2,3-dihydro-1H-inden-4-yl]urea] | 6.66 | 99%
7 | COc1ccc2c(c1)OCCC2NC(=O)Nc1cccc2c1CC(O)C2 (stereo not drawn) [Example 107, 1-(2-hydroxy-2,3-dihydro-1H-inden-4-yl)-3-(7-methoxy-3,4-dihydro-2H-chromen-4-yl)urea] | 5.66 | 55%
8 | O=C(Nc1cccc2c1C[C@H](O)C2)N[C@@H]1CC(CF)(CF)Oc2c(Cl)cccc21 [Example 2, 1-[(4R)-8-chloro-2,2-bis(fluoromethyl)-3,4-dihydro-2H-chromen-4-yl]-3-[(2R)-2-hydroxy-2,3-dihydro-1H-inden-4-yl]urea] | 6.80 | 80%
9 | C[C@]1(CF)C[C@@H](NC(=O)Nc2cccc3c2C[C@H](O)C3)c2cccc(F)c2O1 [Example 66, 1-[(2R,4R)-8-fluoro-2-(fluoromethyl)-2-methyl-3,4-dihydro-2H-chromen-4-yl]-3-[(2R)-2-hydroxy-2,3-dihydro-1H-inden-4-yl]urea] | 6.55 | 86%
10 | O=C(Nc1cccc2c1C[C@H](O)C2)NC1COc2cc(Cl)ccc2C1 (stereo partly drawn) [Example 99, 1-(7-chloro-3,4-dihydro-2H-chromen-3-yl)-3-[(2R)-2-hydroxy-2,3-dihydro-1H-inden-4-yl]urea] | 6.24 | 75%
11 | O=C(Nc1ccc(F)c2c1C[C@@H](O)C2)N[C@@H]1CC(CF)(CF)Oc2ccc(F)cc21 [Example 161, 1-[(4R)-6-fluoro-2,2-bis(fluoromethyl)-3,4-dihydro-2H-chromen-4-yl]-3-[(2R)-7-fluoro-2-hydroxy-2,3-dihydro-1H-inden-4-yl]urea] | 5.41 | 47%
12 | O=C(Nc1cccc2c1CC(O)C2)NC1CC(c2ccccc2Cl)Oc2ccccc21 (stereo not drawn) [Example 120, 1-[2-(2-chlorophenyl)-3,4-dihydro-2H-chromen-4-yl]-3-(2-hydroxy-2,3-dihydro-1H-inden-4-yl)urea] | 5.80 | 51%
13 | CC(=O)Nc1nc2c(Oc3cc(-c4ccc(C(F)(F)F)cc4)ncn3)cccc2s1 [A, reference compound] | 7.70 | 10%
14 | CC1(C)C[C@@H](NC(=O)Nc2ccc(F)c3c2C[C@H](O)C3)c2ccc(C(F)(F)F)cc2O1 [Example 140, 1-[(4R)-2,2-dimethyl-7-(trifluoromethyl)-3,4-dihydro-2H-chromen-4-yl]-3-[(2S)-7-fluoro-2-hydroxy-2,3-dihydro-1H-inden-4-yl]urea] | 7.24 | 2%

Continued by rising pIC50 (human TRPV1 [1]), values first:

Row | pIC50 (human TRPV1 [1]) | human TRPV1 H+ (max % remain) (human TRPV1 [2]) | Compound
15 | 5.10 | 97% | O=C(Nc1cccc2c1CC(O)C2)NC1c2ccccc2OCC1c1ccccc1 (stereo not drawn) [Example 108, 1-(2-hydroxy-2,3-dihydro-1H-inden-4-yl)-3-(3-phenyl-3,4-dihydro-2H-chromen-4-yl)urea]
16 | 5.39 | 94% | COc1ccc(C2COc3ccccc3C2NC(=O)Nc2cccc3c2CC(O)C3)cc1 (stereo not drawn) [Example 116, 1-(2-hydroxy-2,3-dihydro-1H-inden-4-yl)-3-[3-(4-methoxyphenyl)-3,4-dihydro-2H-chromen-4-yl]urea]
17 | 5.39 | 81% | O=C(Nc1cccc2c1C[C@H](O)C2)N[C@@H]1CCOc2ccccc21 [Example 47, 1-[(4R)-3,4-dihydro-2H-chromen-4-yl]-3-[(2R)-2-hydroxy-2,3-dihydro-1H-inden-4-yl]urea]
18 | 5.51 | 21% | CN1CC[C@@H](NC(=O)Nc2ccc(F)c3c2C[C@H](O)C3)c2ccc(C(F)(F)F)cc21 [Example 148, 1-[(2S)-7-fluoro-2-hydroxy-2,3-dihydro-1H-inden-4-yl]-3-[(4R)-1-methyl-7-(trifluoromethyl)-1,2,3,4-tetrahydroquinolin-4-yl]urea]
19 | 5.55 | 5% | CC1(C)C[C@@H](NC(=O)Nc2ccc(F)c3c2C[C@H](O)C3)c2cccc(F)c2O1 [Example 136, 1-[(4R)-8-fluoro-2,2-dimethyl-3,4-dihydro-2H-chromen-4-yl]-3-[(2S)-7-fluoro-2-hydroxy-2,3-dihydro-1H-inden-4-yl]urea]
20 | 6.16 | 38% | O=C(Nc1ccc(F)c2c1C[C@@H](O)C2)N[C@@H]1CC2(CCC2)Oc2ccc(F)cc21 [Example 163, 1-[(4R)-6-fluoro-3,4-dihydrospiro[chromene-2,1′-cyclobutan]-4-yl]-3-[(2R)-7-fluoro-2-hydroxy-2,3-dihydro-1H-inden-4-yl]urea]
21 | 6.37 | 87% | CC1(C)C[C@@H](NC(=O)Nc2cccc3c2C[C@H](O)C3)c2cccc(F)c2O1 [Example 46, 1-[(4R)-8-fluoro-2,2-dimethyl-3,4-dihydro-2H-chromen-4-yl]-3-[(2R)-2-hydroxy-2,3-dihydro-1H-inden-4-yl]urea]
22 | 6.57 | 60% | O=C(Nc1cccc2c1C[C@H](O)C2)N[C@@H]1CCc2cc(F)ccc21 [Example 92, 1-[(1R)-5-fluoro-2,3-dihydro-1H-inden-1-yl]-3-[(2R)-2-hydroxy-2,3-dihydro-1H-inden-4-yl]urea]
23 | 6.59 | 62% | C[C@]1(C(F)F)C[C@@H](NC(=O)Nc2cccc3c2C[C@H](O)C3)c2ccccc2O1 [Example 127, 1-[(2R,4R)-2-(difluoromethyl)-2-methyl-3,4-dihydro-2H-chromen-4-yl]-3-[(2R)-2-hydroxy-2,3-dihydro-1H-inden-4-yl]urea]
24 | 6.68 | 4% | O=C(Nc1c(F)ccc2c1C[C@@H](O)C2)N[C@@H]1CC(CF)(CF)Oc2cc(Cl)ccc21 [Example 176, 1-[(4R)-7-chloro-2,2-bis(fluoromethyl)-3,4-dihydro-2H-chromen-4-yl]-3-[(2S)-5-fluoro-2-hydroxy-2,3-dihydro-1H-inden-4-yl]urea]
25 | 7.09 | 78% | CC1(C)Oc2ccc(F)cc2CC1NC(=O)Nc1cccc2c1C[C@H](O)C2 (stereo partly drawn) [Example 91, 1-(6-fluoro-2,2-dimethyl-3,4-dihydro-2H-chromen-3-yl)-3-[(2R)-2-hydroxy-2,3-dihydro-1H-inden-4-yl]urea]
26 | 7.09 | 3% | CC1(C)C[C@@H](NC(=O)Nc2ccc(F)c3c2C[C@H](O)C3)c2cccc(OC(F)(F)F)c2O1 [Example 154, 1-[(4R)-2,2-dimethyl-8-(trifluoromethoxy)-3,4-dihydro-2H-chromen-4-yl]-3-[(2S)-7-fluoro-2-hydroxy-2,3-dihydro-1H-inden-4-yl]urea]
27 | 7.13 | 33% | CC1(C)C[C@@H](NC(=O)Nc2cccc3c2C[C@@H](O)C3)c2ccc(F)cc2O1 [Example 32, 1-[(4R)-7-fluoro-2,2-dimethyl-3,4-dihydro-2H-chromen-4-yl]-3-[(2S)-2-hydroxy-2,3-dihydro-1H-inden-4-yl]urea]
28 | 7.19 | 43% | CC1(C)C[C@@H](NC(=O)Nc2ccc(F)c3c2C[C@@H](O)C3)c2ccc(F)c(Cl)c2O1 [Example 166, 1-[(4R)-8-chloro-7-fluoro-2,2-dimethyl-3,4-dihydro-2H-chromen-4-yl]-3-[(2R)-7-fluoro-2-hydroxy-2,3-dihydro-1H-inden-4-yl]urea]
29 | 7.49 | 47% | 1-[(4R)-2,2-dimethyl-8-(trifluoromethoxy)-3,4-dihydro-2H-chromen-4-yl]-3-[(2R)-7-fluoro-2-hydroxy-2,3-dihydro-1H-inden-4-yl]urea [Example 172]
30 | 7.96 | 14% | CC1(C)C[C@@H](NC(=O)Nc2cccc3c2C[C@@H](O)C3)c2ccc(Cl)c(F)c2O1 [Example 35, 1-[(4R)-7-chloro-8-fluoro-2,2-dimethyl-3,4-dihydro-2H-chromen-4-yl]-3-[(2S)-2-hydroxy-2,3-dihydro-1H-inden-4-yl]urea]
